According to PubChem BioAssay (NCI):
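Growth conditions: 96-well plates. Treatment: test compound, 48 hours, 5 concentrations. Analysis: linear interpolation between bracketing concentrations; unreached endpoints set to highest concentration. GI50: concentration for 50% inhibition of growth. TGI denotes the concentration required for complete inhibition of growth.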

What was measured:
Assay in all cases: DTP human tumour cell line panel, 48 h
COLO 205 colon = test system: COLO 205 colon
HCT-15 colon = test system: HCT-15 colon
HT29 colon = test system: HT29 colon
NCI-H23 lung = test system: NCI-H23 lung
NCI-H522 lung = test system: NCI-H522 lung
OVCAR-4 ovarian = test system: OVCAR-4 ovarian
PC-3 prostate = test system: PC-3 prostate
SF-539 CNS = test system: SF-539 CNS
UACC-257 melanoma = test system: UACC-257 melanoma
UACC-62 melanoma = test system: UACC-62 melanoma

Row | SMILES | TGI (COLO 205 colon) [µM] | TGI (HCT-15 colon) [µM] | TGI (HT29 colon) [µM] | TGI (NCI-H23 lung) [µM] | TGI (NCI-H522 lung) [µM] | TGI (OVCAR-4 ovarian) [µM] | TGI (PC-3 prostate) [µM] | TGI (SF-539 CNS) [µM] | TGI (UACC-257 melanoma) [µM] | TGI (UACC-62 melanoma) [µM] | GI50 (COLO 205 colon) [µM] | GI50 (HCT-15 colon) [µM] | GI50 (HT29 colon) [µM] | GI50 (NCI-H23 lung) [µM] | GI50 (NCI-H522 lung) [µM] | GI50 (OVCAR-4 ovarian) [µM] | GI50 (PC-3 prostate) [µM] | GI50 (SF-539 CNS) [µM] | GI50 (UACC-257 melanoma) [µM] | GI50 (UACC-62 melanoma) [µM]
1 | C[N+]1(C)CC=C(N2CCOCC2)CC1 | > 10 | > 10 | > 10 | > 10 | > 10 | > 10 | > 10 | > 10 | > 10 | > 10 |  |  |  |  |  |  |  |  |  | 
2 | CCOn1cc(C[C@@]2(O)C(=O)OC3[C@@H](O)CO[C@@]32O)c2ccccc21 (stereo not given in full) | > 100 | > 100 | > 100 | > 100 | > 100 | > 100 | > 100 | > 100 | > 100 | > 100 |  |  |  |  |  |  |  |  |  | 
3 | COC1/C=C\C=C(/C)C(=O)NC2=CC(=O)C(NCCCl)=C(CC(C)CC(OC)C(O)C(C)/C=C(/C)C1OC(N)=O)C2=O (stereo not given) | 1.2 | 2.77 | 1.92 | 1.27 | 0.319 | 15 | 8.84 | 2.17 | 0.911 | 1.33 |  |  |  |  |  |  |  |  |  | 
4 | O=[N+]([O-])/C(C(Cl)=C(Cl)Cl)=C1\Nc2ccccc2O1 | > 100 | > 100 | > 100 | > 100 | 63.8 | > 100 | > 100 | 38.6 | > 100 | > 100 |  |  |  |  |  |  |  |  |  | 
5 | [N-]=N[N+]#I1OC(C(F)(F)F)(C(F)(F)F)c2ccccc21 | 27 | 21.2 | 35.3 | 36.8 | 30.5 | 28.9 | 30.1 | 30.6 | 75.9 | 47.8 |  |  |  |  |  |  |  |  |  | 
6 | O=c1c2cc([N+](=O)[O-])ccc2n2n1Cc1ccccc1CC2 | > 100 | > 100 | > 100 | > 100 | > 100 | > 100 | > 100 | > 100 | > 100 | > 100 |  |  |  |  |  |  |  |  |  | 
7 | Cc1c2c(n3c(nc4ccccc43)c1C#N)N(c1ccc(Cl)cc1)CC2 | > 100 | > 100 | > 100 | > 100 | > 100 | > 100 | > 100 | > 100 | > 100 | > 100 |  |  |  |  |  |  |  |  |  | 
8 | O=C1N[C@H]2c3c(Cl)sc(Cl)c3C(=O)[C@H]2O1 | > 51 | 5.51 | 13.8 | 29 | 3.43 | 37.5 | > 62.5 | 39.9 | 36.2 | 36.4 |  |  |  |  |  |  |  |  |  | 
9 | CCOC(=O)C(NCc1ccccc1)(NC(=O)c1ccccc1)C(F)(F)F (stereo not given) | > 100 | > 100 | > 100 | > 100 | > 100 | > 100 | > 100 | > 100 | > 100 | > 100 |  |  |  |  |  |  |  |  |  | 
10 | COc1ccc(NC(=S)NN=C(C)c2cccc(C(C)=NNC(=S)Nc3ccc(OC)cc3)n2)cc1 | > 100 | > 100 | > 100 | > 100 | > 100 | > 100 | > 100 | > 100 | > 100 | > 100 |  |  |  |  |  |  |  |  |  | 
11 | CC(=O)N[C@@H](Cc1ccc(O)cn1)C(=O)NCc1cccc(F)c1 | > 100 | > 100 | > 100 | > 100 | > 100 | > 100 | > 100 | > 100 | > 100 | > 100 |  |  |  |  |  |  |  |  |  | 
12 | O=C(C=P(c1ccccc1)(c1ccccc1)c1ccccc1)C12CC3CC(CC(C3)C1)C2 | 28.7 | 26.7 | 23.2 | 33.2 | 20.6 | 52.9 | 24 | 37 | 32.8 | 29.1 |  |  |  |  |  |  |  |  |  | 
13 | COc1ccc(C2CC(c3cc4c(C)c(C(=O)c5ccccc5)oc4cc3O)=Nc3ccccc3S2)cc1OC (stereo not given) | > 100 | > 100 | > 100 | > 100 | > 85 | > 48.9 | > 100 | > 86.2 | > 100 | > 85.8 |  |  |  |  |  |  |  |  |  | 
14 | COc1ccc2nc3ccc(OC)cc3c(S(=O)Cc3ccc([N+](=O)[O-])cc3)c2c1 (stereo not given) | 15.9 | 10.5 | 6.33 | 25.1 | 3.37 | 23.7 | 27.6 | 7.25 | 11.4 | 29.5 |  |  |  |  |  |  |  |  |  | 
15 | CN(C)CC1CCC/C(=C\c2ccc(N(C)C)cc2)C1=O (stereo not given) | 6.65 | 16.1 | 3.6 | 28.7 | 3.21 | 4.4 | 32.2 | 28.8 | 26.3 | 29.2 |  |  |  |  |  |  |  |  |  | 
16 | CC(C)(C)C1CCC2c3c([nH]c4ccccc34)C3C(=O)N(c4cc(Br)cc(Br)c4)C(=O)C3C2C1 (stereo not given) | > 100 | > 100 | > 100 | 63.3 | 66.4 | 69.7 | 33.2 | 34 | > 100 | > 100 |  |  |  |  |  |  |  |  |  | 
17 | O=C(NCc1cn(Cc2cccc(Oc3ccccc3)c2)nn1)c1cccnc1Nc1ccccc1 | 5.75 | > 100 | 11.6 | > 100 | 5.06 | > 100 | > 100 | 8.6 | 86.4 | 33.8 | 2.79 | 3.81 | 3.65 | 3.73 | 2.11 | 5.42 | 3.27 | 3.1 | 14.2 | 3.02
18 | O=C1Nc2ccccc2C(=O)OC(Cc2ccccc2)=Nc2ccccc21 | > 100 | > 100 | > 100 | > 100 | > 100 | > 100 | > 100 | > 100 | > 100 | > 100 |  |  |  |  |  |  |  |  |  | 
